From patent US4041022A, “Process for the manufacture of thyrocalcitonin” (Ciba-Geigy Corporation, priority 1967, dated 1977)
Positions of bridges follow the written chain, without caps; N, C: chain ends. Non-standard residues stand in square brackets, D forms with d. Residues, ends and D or L forms follow the SMILES beside them. Met(O) = CS(=O)CC[C@H](N)C(=O)O

What was measured:
[1] = solubility; assay type: physicochemical; settings: for solubility of the acetate: acetate of the peptide; for solubility of the trichloracetate: trichloracetate of the peptide
[2] = stability towards mild oxidation with performic acid; assay type: physicochemical
Method: b. 80 g of Bio-gel P6 are allowed to swell overnight in 0.1N-formic acid, then filled into a chromatography tube (internal diameter 2.5 cm) up to a height of 94 cm (when it has settled; total volume of the gel bed, 460 ml). 600 mg of the crude product obtained as described under (a) above are dissolved in 20 ml of 0.1N-formic acid, the solution poured on to the gel column, and eluted with 0.1N-formic acid. The eluate is passed through a recording UV percolation photometer (254 nm) and collected in fractions of 15 ml each. The eluates are analyzed by thin-layer chromatography over Sephadex G 25 (superfine) (registered Trade Mark) in 0.1N-formic acid (with chlorine/tolidine reagent), and tested biologically. The maximum activity is found in an eluate volume corresponding to 0.8 column volume. The fractions are lyophilized individually and yield 70% of the total activity; the best fractions have an activity of 40 MRC units/mg. The molecular weight of these active substances is below 5000. The product can be further purified by counter-current distribution and/or gel chromatography. For this purpose, batches of 2-5 g of the enriched material are subjected to counter-current distribution over 250-300 stages in the system n-butanol:methanol:0.1N-acetic acid (4:1:5). […]

solubility of the acetate [1]	solubility of the trichloracetate [1]	stability towards mild oxidation with performic acid [2]	SMILES
readily soluble	rather sparingly soluble	stable	CC(C)C[C@H](NC(=O)[C@H](CC(N)=O)NC(=O)[C@H](CCCNC(=N)N)NC(=O)[C@H](Cc1c[nH]c2ccccc12)NC(=O)[C@H](Cc1ccc(O)cc1)NC(=O)[C@H](C)NC(=O)[C@H](CO)NC(=O)[C@H](CC(C)C)NC(=O)[C@@H](NC(=O)[C@@H]1CSSC[C@H](N)C(=O)N[C@@H](CO)C(=O)N[C@@H](CC(N)=O)C(=O)N[C@@H](CC(C)C)C(=O)N[C@@H](CO)C(=O)N[C@@H]([C@@H](C)O)C(=O)N1)C(C)C)C(=O)N[C@@H](CC(N)=O)C(=O)N[C@@H](CC(N)=O)C(=O)N[C@@H](Cc1ccccc1)C(=O)N[C@@H](Cc1c[nH]cn1)C(=O)N[C@@H](CCCNC(=N)N)C(=O)N[C@@H](Cc1ccccc1)C(=O)N[C@@H](CO)C(=O)NCC(=O)N[C@@H](CC[S+](C)[O-])C(=O)NCC(=O)N[C@@H](Cc1ccccc1)C(=O)NCC(=O)N1CCC[C@H]1C(=O)N[C@@H](CCC(=O)O)C(=O)N[C@H](C(=O)N1CCC[C@H]1C(N)=O)[C@@H](C)O (stereo partly drawn) [β-thyrocalcitonin] (H-CSNLSTCVLSAYWRNLNNFHRFSG[Met(O)]GFGPETP-NH2; disulfide 1-7)
readily soluble	rather sparingly soluble	becomes a more polar product	CSCC[C@H](NC(=O)CNC(=O)[C@H](CO)NC(=O)[C@H](Cc1ccccc1)NC(=O)[C@H](CCCNC(=N)N)NC(=O)[C@H](Cc1c[nH]cn1)NC(=O)[C@H](Cc1ccccc1)NC(=O)[C@H](CC(N)=O)NC(=O)[C@H](CC(N)=O)NC(=O)[C@H](CC(C)C)NC(=O)[C@H](CC(N)=O)NC(=O)[C@H](CCCNC(=N)N)NC(=O)[C@H](Cc1c[nH]c2ccccc12)NC(=O)[C@H](Cc1ccc(O)cc1)NC(=O)[C@H](C)NC(=O)[C@H](CO)NC(=O)[C@H](CC(C)C)NC(=O)[C@@H](NC(=O)[C@@H]1CSSC[C@H](N)C(=O)N[C@@H](CO)C(=O)N[C@@H](CC(N)=O)C(=O)N[C@@H](CC(C)C)C(=O)N[C@@H](CO)C(=O)N[C@@H]([C@@H](C)O)C(=O)N1)C(C)C)C(=O)NCC(=O)N[C@@H](Cc1ccccc1)C(=O)NCC(=O)N1CCC[C@H]1C(=O)N[C@@H](CCC(=O)O)C(=O)N[C@H](C(=O)N1CCC[C@H]1C(N)=O)[C@@H](C)O [α-thyrocalcitonin] (H-CSNLSTCVLSAYWRNLNNFHRFSGMGFGPETP-NH2; disulfide 1-7)
